Measurements: PubChem BioAssay (NCI)
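Method: 48-hour compound exposure of cells in 96-well plates, five concentrations, linear interpolation of endpoints. GI50 marks 50% less growth. TGI: total growth inhibition.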

Key:
Assay in all cases: NCI-60 cell line screen, 48 h
[1] = tested on: 786-0 renal
[2] = tested on: A498 renal
[3] = tested on: A549 NSCLC
[4] = tested on: ACHN renal
[5] = tested on: BT-549 breast
[6] = tested on: CAKI-1 renal
[7] = tested on: CCRF-CEM leukemia
[8] = tested on: COLO 205 colon
[9] = tested on: DU-145 prostate
[10] = tested on: HCC-2998 colon
[11] = tested on: HCT-116 colon
[12] = tested on: HCT-15 colon
[13] = tested on: HOP-62 NSCLC
[14] = tested on: HOP-92 NSCLC
[15] = tested on: HS 578T breast
[16] = tested on: HT29 colon
[17] = tested on: IGROV1 ovarian
[18] = tested on: K-562 leukemia
[19] = tested on: KM12 colon
[20] = tested on: LOX IMVI melanoma
[21] = tested on: M14 melanoma
[22] = tested on: MALME-3M melanoma
[23] = tested on: MCF7 breast
[24] = tested on: MDA-MB-231 breast
[25] = tested on: MDA-MB-435
[26] = tested on: MOLT-4 leukemia

Q: Which results are given for Cc1ccc(S(=O)(=O)Oc2ccc3c4c(c(=O)oc3c2)CCCCC4)cc1?
A: GI50 [1]: > 100 µM; TGI [1]: > 100 µM; GI50 [2]: 6.21 µM; TGI [2]: > 100 µM; GI50 [3]: > 100 µM; TGI [3]: > 100 µM; GI50 [4]: > 100 µM; TGI [4]: > 100 µM; GI50 [5]: 7.1 µM; TGI [5]: > 100 µM; GI50 [6]: > 100 µM; TGI [6]: > 100 µM; GI50 [7]: 5.18 µM; TGI [7]: > 100 µM; GI50 [8]: 4.05 µM; TGI [8]: > 100 µM; GI50 [9]: > 100 µM; TGI [9]: > 100 µM; GI50 [10]: > 100 µM; TGI [10]: > 100 µM; GI50 [11]: 6 µM; TGI [11]: > 100 µM; GI50 [12]: 3.66 µM; TGI [12]: > 100 µM; GI50 [13]: > 100 µM; TGI [13]: > 100 µM; GI50 [14]: 9.26 µM; TGI [14]: > 100 µM; GI50 [15]: 96.2 µM; TGI [15]: > 100 µM; GI50 [16]: 4.06 µM; TGI [16]: > 100 µM; GI50 [17]: > 100 µM; TGI [17]: > 100 µM; GI50 [18]: 3.51 µM; TGI [18]: > 100 µM; GI50 [19]: 7.16 µM; TGI [19]: > 100 µM; GI50 [20]: > 100 µM; TGI [20]: > 100 µM; GI50 [21]: > 100 µM; TGI [21]: > 100 µM; GI50 [22]: > 100 µM; TGI [22]: > 100 µM; GI50 [23]: 9.16 µM; TGI [23]: > 100 µM; GI50 [24]: > 100 µM; TGI [24]: > 100 µM; GI50 [25]: > 100 µM; TGI [25]: > 100 µM; GI50 [26]: 6.16 µM
